Assay results as given in US20160304861A1, “SPATIAL MULTIPLEXING FOR MULTISIGNAL CELLULAR IMAGING” (Massachusetts Institute of Technology, priority 2015, published 2016).

Test system: Gcamp6f sensor cluster in HEK293 cells
Assay: Gcamp6f sensor cluster response to ionomycin treatment in HEK293 cells
Format: cell-based
Settings: 20 mM ionomycin in DMSO added at around 2 minutes, FIG. 1C
Procedure: HEK cells were transfected with the TransIT®-293 transfection reagent (Minis). Cells were plated in a 24-well plate, transfected with 50 ng plasmids per well after 18-24 hours plating, and imaged 24 hours after transfection. Mouse neurons were transfected with the calcium phosphate transfection kit (Invitrogen). Neurons were plated in a 24-well plate, transfected 96 hours after plating with 1500 ng plasmids per well and were imaged at least 48 hours after transfection. For co-transfection in neurons, two plasmids were mixed as 1:1 ratio, maintaining a total of 1500 ng plasmids per well. For HEK experiments, NucBlue Life cell stain and ReadyProbes reagent (Life Technologies) were added to stain the nucleus. Mfn1-null MEF cells (ATCC® CRL-2992™) were plated in a 24-well glass-bottom plate with 50-70% cell confluency. Plasmids were then transfected with a mixture of 200 ng plasmid and […] Trans-IT X2 (Mirus) per well. Transfected cells were incubated at 37° C. for 48-72 hours to establish the expression.
An inverted epi-fluorescence Nikon Ti Eclipse equipped with SPECTRA X light engine (LumenCor), Zyla5.5 camera (Andor), 100× 1.45 NA oil objective lens (Nikon), 20× 0.75 NA objective lens (Nikon), and standard CFP-YFP FRET filter sets (Semrock) were used to image the fluorescent patterns. FRET imaging typically lasts for 10 min. […]

## C[C@H](CCC(=O)O)C[C@H](C)C[C@H](C)C(=O)/C=C(\O)[C@H](C)C[C@H](C)C/C=C/[C@@H](C)[C@@H](O)[C@@H](C)[C@@H](O)C[C@@H]1CC[C@@](C)([C@H]2CC[C@@](C)([C@@H](C)O)O2)O1 [ionomycin]
  fluorescence by the Gcamp6f sensor cluster: incrase in fluorescence
